Laboratory results taken from BindingDB's records for doi:10.3109/14756366.2011.643302 (Centre de Recherche de Gif, 2013).

Assays:
[1] = target: T1, Protein farnesyltransferase subunit beta/geranylgeranyltransferase type-1 subunit alpha (Saccharomyces cerevisiae (strain ATCC 204508 / S288c), UniProt P22007+P29703); assay: Yeast FTase Assay; details: pH 7.5
T1 sequence (P22007 whole entry): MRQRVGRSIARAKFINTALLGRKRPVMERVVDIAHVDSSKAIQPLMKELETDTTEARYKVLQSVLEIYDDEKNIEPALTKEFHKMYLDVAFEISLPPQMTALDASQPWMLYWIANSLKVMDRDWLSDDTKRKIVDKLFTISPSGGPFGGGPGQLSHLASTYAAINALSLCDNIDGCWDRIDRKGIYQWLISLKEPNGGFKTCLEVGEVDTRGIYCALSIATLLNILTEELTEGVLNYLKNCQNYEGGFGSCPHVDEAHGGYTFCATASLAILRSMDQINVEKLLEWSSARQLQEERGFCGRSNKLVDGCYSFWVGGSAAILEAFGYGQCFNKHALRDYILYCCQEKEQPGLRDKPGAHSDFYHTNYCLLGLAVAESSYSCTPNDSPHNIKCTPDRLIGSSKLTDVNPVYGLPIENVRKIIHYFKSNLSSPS
T1 sequence (P29703 whole entry): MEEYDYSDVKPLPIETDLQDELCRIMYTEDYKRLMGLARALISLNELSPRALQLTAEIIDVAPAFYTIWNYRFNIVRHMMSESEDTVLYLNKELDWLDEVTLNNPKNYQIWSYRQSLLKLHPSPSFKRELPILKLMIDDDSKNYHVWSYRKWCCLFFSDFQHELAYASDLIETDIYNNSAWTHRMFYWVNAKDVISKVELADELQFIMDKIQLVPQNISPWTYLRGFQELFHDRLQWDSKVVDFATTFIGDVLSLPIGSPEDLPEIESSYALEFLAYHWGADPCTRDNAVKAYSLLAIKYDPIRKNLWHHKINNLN
Description: Assays were realized on 96-well plates, prepared with Biomek NKMC and Biomek 3000 from Beckman Coulter and read on Wallac Victor fluorimeter from Perkin-Elmer. Per well, 20 μL of farnesyl pyrophosphate (10 μM) was added to 180 μL of a solution containing 2 μL of varied concentrations of potential inhibitors (dissolved in DMSO) and 178 μL of a solution composed by 0.1 mL of partially purified recombinant yeast FTase (2.2 mg/ mL) and 7.0 mL of dansyl-GCVLS peptide (in the following buffer: 5.8 mM DTT, 6 mM MgCl2, 12 μM ZnCl2 and 0.09% (w/v) CHAPS, 53 mM Tris/HCl, pH 7.5). Then the fluorescence development was recorded for 15 min(0.7 second per well, 20 repeats) at 30°C with an excitation filter at 340 nm and an emission filter at 486 nm. Each measurement was realized twice as duplicate ortriplicate.

[2] = target: Protein farnesyltransferase subunit beta/geranylgeranyltransferase type-1 subunit alpha (Homo sapiens, UniProt P49354+P49356); assay: Human FTase Assay
Description: Assays were realized on 96-well plates, as described for yeast FTase but octyl-D-glucopyranoside (0.18%) was used instead of CHAPS and the solution contains 5 μLof partially purified human FTase (1.5 mg/mL)7 in 1 mL peptide solution.

[3] = target: T2, Protein farnesyltransferase alpha subunit/subunit beta (Trypanosoma brucei brucei, UniProt Q9NC76+Q9NC77); assay: T. brucei FTase Assay
T2 sequence (Q9NC77 whole entry): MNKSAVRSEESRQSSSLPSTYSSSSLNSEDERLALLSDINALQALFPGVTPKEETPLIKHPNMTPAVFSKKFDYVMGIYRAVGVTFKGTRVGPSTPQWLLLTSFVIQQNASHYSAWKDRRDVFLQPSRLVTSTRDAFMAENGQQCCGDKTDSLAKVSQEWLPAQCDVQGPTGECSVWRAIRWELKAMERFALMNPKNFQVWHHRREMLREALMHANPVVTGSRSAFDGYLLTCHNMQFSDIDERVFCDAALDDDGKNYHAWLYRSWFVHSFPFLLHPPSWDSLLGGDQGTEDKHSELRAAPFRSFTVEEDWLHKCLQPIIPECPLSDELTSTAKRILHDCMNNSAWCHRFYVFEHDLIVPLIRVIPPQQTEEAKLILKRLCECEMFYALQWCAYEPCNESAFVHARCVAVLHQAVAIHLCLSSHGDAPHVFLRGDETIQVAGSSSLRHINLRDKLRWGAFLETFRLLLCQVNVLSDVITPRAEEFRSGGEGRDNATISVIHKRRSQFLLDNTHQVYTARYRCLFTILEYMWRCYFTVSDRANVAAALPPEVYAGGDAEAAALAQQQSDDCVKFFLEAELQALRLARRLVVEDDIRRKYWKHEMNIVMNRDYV
T2 sequence (Q9NC76 whole entry): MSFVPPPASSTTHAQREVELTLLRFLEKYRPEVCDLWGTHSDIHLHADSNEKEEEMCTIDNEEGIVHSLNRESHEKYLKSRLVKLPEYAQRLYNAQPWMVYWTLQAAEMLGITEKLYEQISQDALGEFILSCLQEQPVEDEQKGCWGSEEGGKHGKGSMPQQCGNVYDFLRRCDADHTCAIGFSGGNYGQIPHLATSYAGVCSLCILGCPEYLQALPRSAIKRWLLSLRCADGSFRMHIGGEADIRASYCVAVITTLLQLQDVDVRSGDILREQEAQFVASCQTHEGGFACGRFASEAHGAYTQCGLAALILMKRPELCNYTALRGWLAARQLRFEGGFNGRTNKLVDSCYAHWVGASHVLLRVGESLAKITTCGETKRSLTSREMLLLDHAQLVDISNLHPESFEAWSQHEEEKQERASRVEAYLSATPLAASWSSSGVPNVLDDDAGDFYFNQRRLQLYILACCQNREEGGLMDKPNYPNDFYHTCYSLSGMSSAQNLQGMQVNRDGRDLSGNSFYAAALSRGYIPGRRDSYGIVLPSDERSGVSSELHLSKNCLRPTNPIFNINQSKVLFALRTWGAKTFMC
Description: Assays were realized on 96-well plates, as described for human FTase with the dansylated peptide Dansyl-GCAIM and the solution contains 15 μL of partially purified Tb-FTase (1.0 mg/mL) in 1 mL peptide solution.

Structure (SMILES) | IC50 [1] | IC50 [2] | IC50 [3]
CC(C)Sc1sc(C(=O)O)c(-c2ccccc2F)c1C#N [3-(2-Fluorophenyl)-4-cyano-5-(isopropylthio)thiophene-2-carboxylic acid (1f)] | 1300 nM | > 50 µM | 46 µM
CC(C)Sc1sc(C(=O)O)c(-c2cccc(C(F)(F)F)c2)c1C#N [3-(3-(Trifluoromethyl)phenyl)-4-cyano-5-(isopropylthio)thiophene-2-carboxylic acid (1h)] | 1600 nM | 34 µM | 19 µM
CSCC[C@H](NC(=O)c1ccc(NC[C@@H](N)CS)cc1-c1ccccc1)C(=O)O [2-{[5-((R)-2-Amino-3-mercapto-propylamino)-biphenyl-2-carbonyl]-amino}-4-methylsulfanyl-butyric acid] | 0.78 nM | – | 0.01 µM
Cc1ccccc1-c1c(C(=O)O)sc(SC(C)C)c1C#N [3-(2-Tolyl)-4-cyano-5-(isopropylthio)thiophene-2-carboxylic acid (1v)] | 3100 nM | > 50 µM | > 50 µM
CC(C)Sc1sc(C(=O)O)c(-c2cccc(F)c2)c1C#N [3-(3-Fluorophenyl)-4-cyano-5-(isopropylthio)thiophene-2-carboxylic acid (1e)] | 460 nM | 23 µM | 32 µM
COc1cccc(-c2c(C(=O)O)sc(SC(C)C)c2C#N)c1 [3-(3-Methoxyphenyl)-4-cyano-5-(isopropylthio)thiophene-2-carboxylic acid (1k)] | 1600 nM | – | 18 µM
CC(C)Sc1sc(C(=O)O)c(-c2ccccc2Cl)c1C#N [3-(2-Chlorophenyl)-4-cyano-5-(isopropylthio)thiophene-2-carboxylic acid (1c)] | 1400 nM | > 50 µM | 37 µM
CC(C)Sc1sc(C(=O)O)c(-c2cccc3ccccc23)c1C#N [3-(1-Naphthyl)-4-cyano-5-(isopropylthio)thiophene-2-carboxylic acid (1x)] | 1100 nM | 32 µM | 10.5 µM
CC(C)Sc1sc(C(=O)O)c(-c2ccc(F)cc2)c1C#N [3-(4-Fluorophenyl)-4-cyano-5-(isopropylthio)thiophene-2-carboxylic acid (1d)] | 270 nM | 20 µM | 29 µM
COC(=O)c1ccc(-c2c(C(=O)O)sc(SC(C)C)c2C#N)cc1 [3-(4-(Methoxycarbonyl)phenyl)-4-cyano-5-(isopropylthio)thiophene-2-carboxylic acid (1p)] | 85 nM | 12.8 µM | 14 µM
CC(C)Sc1sc(C(=O)O)c(-c2cccc(Cl)c2)c1C#N [3-(3-Chlorophenyl)-4-cyano-5-(isopropylthio)thiophene-2-carboxylic acid (1b)] | 1300 nM | 48 µM | 14.5 µM
CC(C)Sc1sc(C(=O)O)c(-c2cccc3oc4ccccc4c23)c1C#N [3-(1-Dibenzofuranyl)-4-cyano-5-(isopropylthio)thiophene-2-carboxylic acid (1gg)] | 1000 nM | 15 µM | 3.3 µM
Cc1ccc(-c2c(C(=O)O)sc(SC(C)C)c2C#N)cc1 [3-(4-Tolyl)-4-cyano-5-(isopropylthio)thiophene-2-carboxylic acid (1t)] | 190 nM | 21 µM | 17 µM
COC(=O)c1cccc(-c2c(C(=O)O)sc(SC(C)C)c2C#N)c1 [3-(3-(Methoxycarbonyl)phenyl)-4-cyano-5-(isopropylthio)thiophene-2-carboxylic acid (1q)] | 620 nM | 7 µM | 6.9 µM
COc1ccc(-c2c(C(=O)O)sc(SC(C)C)c2C#N)cc1 [3-(4-Methoxyphenyl)-4-cyano-5-(isopropylthio)thiophene-2-carboxylic acid (1j)] | 250 nM | – | 8.6 µM
CC(C)Sc1sc(C(=O)O)c(-c2ccc(Cl)cc2)c1C#N [3-(4-Chlorophenyl)-4-cyano-5-(isopropylthio)thiophene-2-carboxylic acid (1a)] | 110 nM | – | 10.6 µM
CC(C)Sc1sc(C(=O)O)c(-c2ccc(-c3ccccc3)cc2)c1C#N [3-(4-Biphenyl)-4-cyano-5-(isopropylthio)thiophene-2-carboxylic acid (1z)] | 2700 nM | 5.5 µM | 32 µM
CC(C)Sc1sc(C(=O)O)c(-c2ccc(C(F)(F)F)cc2)c1C#N [3-(4-(Trifluoromethyl)phenyl)-4-cyano-5-(isopropylthio)thiophene-2-carboxylic acid (1g)] | 580 nM | – | –
CC(C)Sc1sc(C(=O)O)c(-c2ccccc2)c1C#N [3-Phenyl-4-cyano-5-(isopropylthio)thiophene-2-carboxylic acid (1s)] | 610 nM | 34 µM | 42 µM
CC(C)Sc1sc(C(=O)O)c(-c2cccc(-c3ccccc3)c2)c1C#N [3-(3-Biphenyl)-4-cyano-5-(isopropylthio)thiophene-2-carboxylic acid (1aa)] | 640 nM | 3.3 µM | 5.4 µM
CC(C)Sc1sc(C(=O)O)c(-c2ccc3ccccc3c2)c1C#N [3-(2-Naphthyl)-4-cyano-5-(isopropylthio)thiophene-2-carboxylic acid (1y)] | 320 nM | 4.8 µM | 9.7 µM
COc1ccccc1-c1c(C(=O)O)sc(SC(C)C)c1C#N [3-(2-Methoxyphenyl)-4-cyano-5-(isopropylthio)thiophene-2-carboxylic acid (1l)] | 9700 nM | > 50 µM | 37 µM
Cc1cccc(-c2c(C(=O)O)sc(SC(C)C)c2C#N)c1 [3-(3-Tolyl)-4-cyano-5-(isopropylthio)thiophene-2-carboxylic acid (1u)] | 1400 nM | 16 µM | 34 µM
